“Also recorded” adds a separate entry of the source.
Legend:
[1] = tested on: Adult ovariectomized female Sprague Dawley rats; experiment: In vivo rat heart ischemia-reperfusion (left coronary artery occlusion), infarct size
Experimental: A rat in vivo model was used to evaluate effects of experimental compounds on ischemia-reperfusion in the left ventricle. Adult ovariectomized female Sprague Dawley rats (>6 weeks) were used. All experimental procedures were performed under general anesthesia with a combination of ketamine and xylazine. Rats were placed on a heating pad and ventilated using a rodent ventilator. The chest was clipped free of hair, disinfected with Betadine and rinsed with alcohol. A small incision was made through skin and underlying muscles between 4th and 5th ribs in the left chest. The ribs were gently spread and the heart was exposed. A surgical suture was placed under the left coronary artery. The artery was occluded by tightening the suture for 30 minutes to induce myocardial ischemia and then re-opened for the 2 hour reperfusion period. […] At the end of reperfusion, hearts were harvested, perfused with Evans Blue, sectioned and stained with 2,3,5-triphenyltetrazolium chloride. Each section was digitally imaged. Infarct size and area at risk were measured and statistically analyzed.

uterus or breast = experiment: Activity in the uterus or breast; conditions: in contrast to the known effects of 17β-estradiol
[2] = tested on: perfused isolated male rat hearts; experiment: Isolated rat heart ischemia-reperfusion (Langendorff perfusion)
Experimental: Male rats 3 months old were anesthetized with sodium-pentobarbital and hearts were removed and mounted on a Langendorff apparatus. In this paradigm isolated hearts were perfused through an aortic cannula with a modified Krebs-Henseleit buffer equilibrated with 95% O2 and 5% CO2 at a constant pressure of 58 mmHg. Hearts were maintained at 37° C. throughout the experiments and temperature was continuously monitored with an IT-18 thermocouple microprobe inserted into the left ventricle (PhysiTemp, Clifton, N.J.). Flow rate was monitored with a flow probe and small animal flow meter (T206) from Transonic Systems Incorporated, Ithaca, N.Y. Hearts were perfused for 5 minutes with no additions followed by perfusion with vehicle or test compound which were continuously perfused throughout the remaining steps of the experiments. After 20 minutes the hearts were exposed to 100 nM isoproterenol for 5 minutes followed by 15 minutes global ischemia which was achieved by turning off the perfusion pump. After ischemia, hearts were reperfused at a constant flow rate for 50 minutes. This flow rate was equivalent to the rate used before ischemia to maintain 58 mmHg.
To assess ischemic damage, the change in left ventricular diastolic pressure was continually monitored using a fluid filled latex balloon inserted into the left ventricle through the left atrium. The diastolic pressure was initially adjusted to 5 mmHg. The pressure signals were recorded with a Grass Polygraph.
The release of creatine kinase (CK) enzyme activity from the hearts was also measured as a marker of cardiac damage. Fractions of perfusate were collected before ischemia and every 5 minutes during reperfusion. CK enzyme activity released from the hearts was determined in the perfusate fractions using CK reagent as recommended by the supplier (Sigma Diagnostics, St. Louis, Mo.).

[3] = tested on: Ovariectomized female New Zealand White rabbits; experiment: In vivo rabbit heart ischemia-reperfusion (left anterior descending coronary artery occlusion), infarct size
Experimental: Ovariectomized female New Zealand White rabbits were anesthetized with a mixture of xylazine (3 mg/kg) and ketamine (35 mg/kg) administered IM, followed by an IV injection of sodium pentobarbital (15 mg/kg). An endotracheal tube was inserted and animals were positive pressure ventilated with room air. A Millar catheter micro-tip pressure transducer was inserted through the left carotid artery and positioned above the aortic valves to monitor aortic blood pressure. A lead II electrocardiogram was monitored throughout the experiment. A left thoracotomy and pericardiotomy were performed. […] A silk suture was passed behind the left anterior descending coronary artery and secured against polyethylene tubing for 30 minutes (ischemic period). Regional myocardial ischemia was verified by cyanosis in the region of the occluded vessel and by ST-segment elevation like changes in the electrocardiogram. The hearts were then reperfused for 4 hours.
To determine infarct size the heart was removed, cannulated through the aorta and perfused with Krebs-Henseleit buffer followed by perfilsion with 1% triphenyltetrazolium chloride (TTC). The left anterior descending coronary artery was re-occluded with a suture and 0.25% Evans Blue was perfused through the heart. The heart was cut into transverse sections and the area of the left ventricle, area at risk and the infarct area were traced and analyzed using Adobe PhotoShop Software. The infarct size is expressed as a percentage of the area at risk.

[4] = tested on: myocardial ischemia-reperfusion models; conditions: cited from earlier work
[5] = 1 uM, isolated rat heart, following ischemia-reperfusion

Row | SMILES | infarct size ([1]; 1 mg/kg iv 5 minutes before reperfusion, 30 minutes ischemia, 2 hour reperfusion, Mean±SEM, vehicle 54.6±3.2% / 54.4±4.7%) | effect on ischemia/reperfusion-induced myocardial infarction compared with vehicle ([1]; 1 mg/kg iv, ovariectomized female rats) | activity in the uterus or breast (uterus or breast) | effect on increase in left ventricular diastolic pressure in comparison to vehicle [2, 5] | effect on left ventricular developed pressure in comparison to vehicle [2, 5] | release of creatine kinase (CK) activity from hearts following ischemia ([2]; 1 uM, perfusate during reperfusion phase, versus vehicle) | increase in left ventricular diastolic pressure after ischemia-reperfusion ([2]; luM of compound, 15 minutes global ischemia, 50 minutes reperfusion, vehicle 29 mmHg) | size of the area at risk relative to the area of the left ventricle ([3]; 1 mg/kg IV 30 minutes before induction of ischemia) | effect on infarct size in comparison to vehicle ([3]; 1 mg/kg IV 30 minutes before induction of ischemia, rabbit) | infarct size (ischemic area relative to the area at risk) ([3]; 1 mg/kg IV 30 minutes before ischemia, 30 minutes ischemia, 4 hours reperfusion, vehicle 59%) | melting point | protection in similar myocardial ischemia-reperfusion models [4]
1 | CC1c2cc(F)ccc2-c2ccccc2N1S(=O)(=O)c1ccc(O)cc1 (stereo not shown) [Example 3, 4-[(8-Fluoro-6-methylphenanthridin-5(6H)-yl)sulfonyl]phenol] | 32.6±5.2% | significantly less myocardial infarction; also recorded: cardioprotective activity | no activity | significantly attenuated; also recorded: cardioprotective activity | significantly attenuated; also recorded: cardioprotective activity | significantly reduced; also recorded: significant decreases; also recorded: cardioprotective activity | 11 mmHg | did not have an effect | significantly reduced infarct size; also recorded: cardioprotective activity | 39% | 188 °C | –
2 | C[C@]12CC[C@@H]3c4ccc(O)cc4CC[C@H]3[C@@H]1CC[C@@H]2O [17β-estradiol] | – | – | – | – | – | – | – | – | – | – | – | protective
3 | COc1cc(OC)cc(N2CCN(C(=O)[C@](C)(C#N)[C@H](c3ccccc3OC)c3cccc4ccccc34)CC2)c1 [Example 4, (S)-3-[4-(3,5-dimethoxyphenyl)piperazin-1-yl]-2-[(S)-(2-methoxyphenyl)(1-naphthyl)methyl]-2-methyl-3-oxopropanenitrile] | – | – | – | – | – | – | – | – | – | – | 186 to 188 °C | –
